One series has as its system DENV-2 16681 strain. Briefly: DENV-2 antiviral assay (eGFP-labeled virus in Vero cells). The class given is cell-based, Dengue virus. The note with it: DENV-2 16681 eGFP, MOI 0.5, 3 days. The method, boiled down:
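Vero cells (2500/well) pre-plated with compound (9-step 5-fold series), infected next day with eGFP-labeled DENV-2 16681 at MOI 0.5 in MEM with 2% FCS; 3 days at 37° C. eGFP fluorescence read at 488 nm; inhibition versus virus and cell controls, EC50 by linear interpolation.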

Series [1] can be described thus: Toxicity on the same plates (ATPlite cell viability). The note with it: African green monkey, CC50, Vero cells, same plates as DENV-2 antiviral assay. For orientation: Cellular ATP, detected with luciferase, serves as a proxy for viable cell number.
The subject of another series is DENV-4 strain H241. The series is described as follows: Tetravalent RT-qPCR assay, serotype 4. The class given is cell-based. Particulars: Dengue virus, DENV4, 72 h; RT-qPCR serotype 4 H241, Protocol A, Vero cells, day 3. On the procedure: (§1) The antiviral activity of the compounds of the invention was tested against DENV-1 strain TC974 #666 (NCPV), DENV-2 strain 16681, DENV-3 strain H87 (NCPV) and DENV-4 strain H241 (NCPV) in a RT-qPCR assay. Therefore, Vero cells were infected with either DENV-1, or -2, or -3, or -4 in the presence or absence of test compounds. At day 3 post-infection, the cells were lysed and cell lysates were used to prepare cDNA of both a viral target (the 3′UTR of DENV; Table 2) and cellular reference gene (β-actin, Table 2). Subsequently, a duplex real time PCR was performed on a Lightcycler480 instrument. The generated Cp value is inversely proportional to the amount of RNA expression of these targets. Inhibition of DENV replication by a test compound results in a shift of Cp's for the 3′UTR gene. On the other hand, if a test compound is toxic to the cells, a similar effect on β-actin expression will be observed. The comparative ΔΔCp method is used to calculate EC50, which is based on the relative gene expression of the target gene (3′UTR) normalized with the cellular housekeeping gene (β-actin). In addition, CC50 values are determined based on the Cp values acquired for the housekeeping gene β-actin.
(§2) The culture medium consisted of minimal essential medium supplemented with 2% of heat-inactivated fetal calf serum, 0.04% gentamycin (50 mg/mL) and 2 mM of L-glutamine. Vero cells, obtained from ECACC, were suspended in culture medium and 75 μL/well was added in 96-well plates (10000 cells/well), which already contain the antiviral compounds. […] In addition, each plate contains wells which are assigned as virus controls (containing cells and virus in the absence of compound) and cell controls (containing cells in the absence of virus and compound). Once the cells were added in the plates, the plates were incubated in a fully humidified incubator (37° C., 5% CO2) until the next day. Dengue viruses serotype-1, 2, 3 and 4 were diluted in order to obtain a Cp of ˜22-24 in the assay. Therefore, 25 μL of virus suspension was added to all the wells containing test compound and to the wells assigned as virus control. In parallel, 25 μL of culture medium was added to the cell controls. Next, the plates were incubated for 3 days in a fully humidified incubator (37° C., 5% CO2). After 3 days, the supernatant was removed from the wells and the cells were washed twice with ice-cold PBS (˜100 μL). The cell pellets within the 96-well plates were stored at −80° C. for at least 1 day. Next, RNA was extracted using the Cells-to-CT™ lysis kit, according to the manufacturer's guideline (Life Technologies). The cell lysates can be stored at −80° C. or immediately used in the reverse transcription step.
(§3) In preparation of the reverse transcription step, mix A (table 3A) was prepared and 7.57 μL/well was dispensed in a 96-well plate. After addition of 5 μL of the cell lysates, a five minute denaturation step at 75° C. was performed (table 3B). Afterwards, 7.43 μL of mix B was added (table 3C) and the reverse transcription step was initiated (table 3D) to generate cDNA.
(§4) Finally, a RT-qPCR mix was prepared, mix C (table 4A), and 22.02 μL/well was dispensed in 96-well LightCycler qPCR plates to which 3 μL of cDNA was added and the qPCR was performed according to the conditions in table 4B on a LightCycler 480.
(§5) Using the LightCycler software and an in-house LIMS system, dose response curves for each compound were calculated and the half maximal effective concentration (EC50) and the half maximal cytotoxic concentration (CC50) were determined (Tables 5-8).

The subject of another series is DENV-3 strain H87. The series is described as follows: Tetravalent RT-qPCR assay, serotype 3. The class given is cell-based. Particulars: Dengue virus, DENV3, 72 h; RT-qPCR serotype 3 H87, Protocol A, Vero cells, day 3. On the procedure: as §1, §2, §3, §4, §5
On the technique in general: Real-time PCR tracks product formation cycle by cycle.

The next series relates to DENV-2 strain 16681. Briefly: Tetravalent RT-qPCR assay, serotype 2. The class given is cell-based. The note with it: Dengue virus, DENV2, 72 h; RT-qPCR serotype 2 16681, Protocol A, Vero cells, day 3. How it is done: as §1, §2, §3, §4, §5
The nature of series [2]: Cytotoxicity in RT-qPCR assay (Cp of housekeeping gene β-actin). The class given is cell-based. Particulars: African green monkey. On the procedure: as §1, §2, §5
The subject of another series is DENV-1 strain TC974 #666. Briefly: Tetravalent RT-qPCR assay, serotype 1. Particulars: Dengue virus, DENV1, 72 h; RT-qPCR serotype 1 TC974#666, Protocol A, Vero cells, day 3. The format is cell-based. On the procedure: as §1, §2, §3, §4, §5
A further series relates to DENV-2. Particulars: analogous DENV-2 antiviral assay, reported activity; cited from earlier work.
For series [3] the following is noted: analogous DENV-2 antiviral assay, reported activity; cited from earlier work.
Setting [4] is: Dengue virus, DENV2, Vero, 72 h.
The mark [5] stands for this setting: RT-qPCR serotype 1 TC974#666, Protocol A.
Where [6] appears, read: RT-qPCR serotype 2 16681, Protocol A.
[7] abbreviates: RT-qPCR serotype 3 H87, Protocol A.
The mark [8] stands for this setting: RT-qPCR serotype 4 H241, Protocol A.

Read-outs that look alike come from different tables or passages of the source.

One may read the EC50 as the concentration needed to bring the measured effect to its halfway point. What is called melting point is the temperature of the solid-liquid transition. As for `COc1cc(NC(C(=O)c2c[nH]c3ccc(C(F)(F)F)cc23)c2ccc(F)cc2OC)cc(OCCO)c1` (racemic) [Compound 1, 2-(4-fluoro-2-methoxyphenyl)-2-((3-(2-hydroxyethoxy)-5-methoxyphenyl)amino)-1-(5-(trifluoromethyl)-1H-indol-3-yl)ethanone], the melting point is 132 °C. For the same molecule, the EC50 with DENV-2 16681 strain (setting [4]) was found to be 1.2 nM. Also, the CC50 in series [1] was 5500 nM.

On to `COc1cc(NC(C(=O)c2c[nH]c3cc(OC)c(C(F)(F)F)cc23)c2ccc(F)cc2OC)cc(OCCO)c1` (racemic) [Compound 2, 2-(4-fluoro-2-methoxyphenyl)-2-((3-(2-hydroxyethoxy)-5-methoxyphenyl)amino)-1-(6-methoxy-5-(trifluoromethyl)-1H-indol-3-yl)ethanone], for which the melting point was found to be 174 °C. Also, the midpoint of the response with DENV-2 16681 strain (setting [4]), the EC50, lay at 0.71 nM. In addition, the CC50 in series [1] was determined as 4800 nM.

Regarding `COc1cc(NC(C(=O)c2c[nH]c3cc(OC)c(OC(F)(F)F)cc23)c2ccc(F)cc2OC)cc(OCCO)c1` (racemic) [Compound 6, 2-(4-fluoro-2-methoxyphenyl)-2-((3-(2-hydroxyethoxy)-5-methoxyphenyl)amino)-1-(6-methoxy-5-(trifluoromethoxy)-1H-indol-3-yl)ethanone], the melting point is 178 °C. A half-maximal response in the series on DENV-2 16681 strain (setting [4]) (EC50) required 0.84 nM. The same molecule showed a CC50 in series [1] of 3600 nM.

With `COc1cc(NC(C(=O)c2c[nH]c3c(C)cc(OC(F)(F)F)cc23)c2ccc(Cl)cc2OC)cc(OCCO)c1` (racemic) [Compound 16, 2-(4-chloro-2-methoxyphenyl)-2-((3-(2-hydroxyethoxy)-5-methoxyphenyl)amino)-1-(7-methyl-5-(trifluoromethoxy)-1H-indol-3-yl)ethanone], the melting point came out at 105 °C. This molecule showed an EC50 in the series on DENV-2 16681 strain (setting [4]) of 0.19 nM. In series [1], this molecule yielded a CC50 of 2500 nM.

On to `COc1cc(NC(C(=O)c2c[nH]c3cc(OC)c(C(F)(F)F)cc23)c2ccc(F)cc2OC)cc(OCCO)c1` (single isomer, unassigned) [Compound 2A, 2-(4-fluoro-2-methoxyphenyl)-2-((3-(2-hydroxyethoxy)-5-methoxyphenyl)amino)-1-(6-methoxy-5-(trifluoromethyl)-1H-indol-3-yl)ethanone], for which the EC50 in the series on DENV-2 16681 strain was 0.45 nM; with DENV-4 strain H241 it was 62 nM; in the series on DENV-3 strain H87 it was 19 nM; in the series on DENV-2 strain 16681, 0.25 nM; in the series on DENV-1 strain TC974 #666, 2.2 nM. The CC50 at 3 days is more than 2500 nM in [2] (setting [5]), 3200 nM in series [2] (setting [6]), more than 1900 nM in series [2] (setting [7]) and more than 2100 nM in series [2] (setting [8]). Also, the CC50 in series [1] amounted to 3500 nM.

For the molecule `COc1cc(NC(C(=O)c2c[nH]c3cc(F)c(C(F)(F)F)cc23)c2ccc(Cl)cc2OC)cc(OCCO)c1` (single isomer, unassigned) [Compound 11A, 2-(4-chloro-2-methoxyphenyl)-1-(6-fluoro-5-(trifluoromethyl)-1H-indol-3-yl)-2-((3-(2-hydroxyethoxy)-5-methoxyphenyl)amino)ethanone], the concentration for a half-maximal effect (EC50) in the series with DENV-2 16681 strain was 0.33 nM; in the series on DENV-4 strain H241, 39 nM; in the series on DENV-3 strain H87, 5.7 nM; with DENV-2 strain 16681, 0.24 nM; with DENV-1 strain TC974 #666 it was 0.69 nM. In addition, the CC50 at 3 days in series [2] (setting [5]) is more than 2500 nM; in series [2] (setting [6]) it was more than 2500 nM; in series [2] (setting [7]), more than 2500 nM; in [2] (setting [8]), 1900 nM. Also, in series [1], the CC50 stood at 2500 nM.

For the molecule `COc1cc(NC(C(=O)c2c[nH]c3c(C)cc(OC(F)(F)F)cc23)c2ccc(Cl)cc2OC)cc(OCCO)c1` (single isomer, unassigned) [Compound 16A, 2-(4-chloro-2-methoxyphenyl)-2-((3-(2-hydroxyethoxy)-5-methoxyphenyl)amino)-1-(7-methyl-5-(trifluoromethoxy)-1H-indol-3-yl)ethanone], the EC50 in the series on DENV-2 16681 strain is 0.098 nM; in the series on DENV-4 strain H241, 17 nM; in the series on DENV-3 strain H87 it was 1.7 nM; in the series with DENV-2 strain 16681 it was 0.15 nM; in the series with DENV-1 strain TC974 #666 it was 0.63 nM. Moreover, the CC50 at 3 days was more than 2500 nM in series [2] (setting [5]), more than 2500 nM in [2] (setting [6]), more than 2500 nM in series [2] (setting [7]) and more than 2000 nM in series [2] (setting [8]). Further, the CC50 in series [1] was determined as 2400 nM.

With `COc1cc(NC(C(=O)c2c[nH]c3ccccc23)c2ccc(F)cc2)cc(OCCO)c1` (centres unmarked) [(350) of WO-2013/045516], the EC50 with DENV-2 is 10 nM. Besides, the CC50 in [3] is 46000 nM.
